Measured values as given in patent US7202270B2, “Convenient stable non-hygroscopic crystalline solid forms of racemic and chiral LA-plus salts: process for their manufacture and uses” (priority 2003, dated 2007).
Where a name gives a salt, the structure may show the parent alone.

Experiments:
Propionibacterium acnes = experiment: Inhibition of P. acnes (zone of inhibition); assay type: cell-based; settings: for Zone of inhibition: P. acnes
Elastase = Elastase inhibition; assay type: biochemical
Tyrosinase = experiment: Activity on Tyrosinase (inhibition); assay type: biochemical
From the text: Tyrosinase inhibition is one of the established in vitro methods of evaluating the skin fairness property.

Solubility data = assay type: physicochemical; settings: Results in gm/dl; 35 to 40° C.
Description: Results in gm/dl; tests were done at 35 to 40° C. temperature.

[1] = Antioxidant assay by DPPH radical scavenging activity; assay type: biochemical
Collagenase = Collagenase inhibition; assay type: biochemical
[2] = Hygroscopicity of the solid salt; assay type: physicochemical; settings: solid salt form
[3] = Absence of sun light, Conc. 6.6 mg
[4] = Exposure to sun light for 5 minutes, Conc. 55 μg

Row | Structure (SMILES) | Minimum concentration showing inhibition of P. acnes (Propionibacterium acnes) [%] | Zone of inhibition (Propionibacterium acnes; Conc. of the sample 0.5%) [mm] | Zone of inhibition (Propionibacterium acnes; Conc. of the sample 1%) [mm] | Zone of inhibition (Propionibacterium acnes; Conc. of the sample 2%) [mm] | Zone of inhibition (Propionibacterium acnes; Conc. of the sample 5%) [mm] | Zone of inhibition (Propionibacterium acnes; Conc. of the sample 10%) [mm] | IC50 for Elastase (Elastase) [µg/mL] | Tyrosinase % Inhibition (Tyrosinase; Conc. 120 μg) [%] | Solubility, ETHANOL (95%) (Solubility data) [%] | Solubility, PROPYLENE GLYCOL (Solubility data) [%] | Solubility, WATER (D. D.) (Solubility data) [%] | % Scavenging (DPPH) [1, 4] [%] | IC50 for Collagenase (Collagenase) [µg/mL] | melting point [°C] | also measured
1 | CN(C)CCNC(=O)CCCCC1CCSS1 (racemic) [LA Plus maleate, (±)-Maleate salt of N-[2-(dimethylamino)ethyl]-1,2-dithiolane-3-pentanamide] | 1.0 | 0 | 7 | 8 | 9 | 11 | 1400 | 58 | 7.35 | 13 | 60 | 53 | 1600 |  | % Scavenging (DPPH) [1, 3]: 54%
2 | CN(C)CCNC(=O)CCCCC1CCSS1.Cl (racemic) [(±)-LA-Plus hydrochloride, N-[2-(dimethylamino)ethyl]-1,2-dithiolane-3-pentanamide monohydrochloride] |  |  |  |  |  |  |  |  |  |  |  |  |  |  | Hygroscopicity [2]: hygroscopic
3 | CN(C)CCNC(=O)CCCCC1CCSS1.O=C(O)/C=C\C(=O)O (stereo not drawn) [R(+)LA Plus maleate, R-(+)-Maleate salt of N-[2-(dimethylamino)ethyl]-1,2-dithiolane-3-pentanamide] | 1.0 | 0 | 8 | 10 | 12 | 15 | 1400 | 58.6 | 6.84 | 10 | 60 | 47 | 1600 | 125 to 127 | % Scavenging (DPPH) [1, 3]: 49%
4 | CCC[C@@H]1C[C@@H](C(=O)N[C@@H]([C@H]2O[C@H](SC)[C@H](O)[C@@H](O)[C@H]2O)[C@H](C)Cl)N(C)C1 [Clindamycin, reference compound] |  | 0 | 7 | 9 | 15 | 20 |  |  |  |  |  |  |  |  | 
5 | CN(C)CCNC(=O)CCCCC1CCSS1.O=C(O)/C=C/C(=O)O (racemic) [LA Plus fumarate, (±)-Fumarate salt of N-[2-(dimethylamino)ethyl]-1,2-dithiolane-3-pentanamide] | 2 | 0 | 0 | 7 | 8 | 10 | 1400 | 53 | 51 | 23 | 100 | 50 | 1600 | 76 to 78 | % Scavenging (DPPH) ([1]; Absence of sun light, Conc. 6.2 mg): 57%
6 | CN(C)CCNC(=O)CCCCC1CCSS1 (racemic) (as salt: maleate) [LA Plus maleate, (±)-Maleate salt of N-[2-(dimethylamino)ethyl]-1,2-dithiolane-3-pentanamide] |  |  |  |  |  |  |  |  |  |  |  |  |  | 125 to 127 | 
7 | O=C1O[C@H]([C@@H](O)CO)C(O)=C1O [Ascorbic acid, reference compound] |  |  |  |  |  |  |  |  |  |  |  |  |  |  | % Scavenging (DPPH) ([1]; Absence of sun light, Conc. 6 μg): 71%; % Scavenging (DPPH) ([1]; Exposure to sun light for 5 minutes, Conc. 6 μg): 59%
8 | O=C(O)CCCCC1CCSS1 (racemic) [α-Lipoic acid, Alpha Lipoic acid, reference compound] | 5 | 0 | 0 | 0 | 7 | 8 | 1400 |  |  |  |  |  | 1600 |  | Tyrosinase % Inhibition (Tyrosinase; Conc. 100 μg): 51%; % Scavenging (DPPH) ([1]; Absence of sun light, Conc. 6 mg): 50%; % Scavenging (DPPH) ([1]; Exposure to sun light for 5 minutes, Conc. 45 μg): 50%
